From patent publication US20150196520A1, “METHOD AND PHARMACEUTICAL COMPOSITION FOR TREATING DERMATOPHYTOSIS” (priority 2012, published 2015)
Where two headings read alike, the source gives them in different places.

Key:
[1] = system: T. mentagrophytes IFM 59813; assay: CLSI broth microdilution drug-sensitivity test; assay type: cell-based, Trichophyton mentagrophytes
Procedure: (§1) The antimicrobial activity of the pharmaceutical composition for dermatomycosis according to the present invention was evaluated through drug-susceptibility tests against major pathogenic fungi performed in compliance with the guidelines of the Clinical Laboratory Standards Institute (CLSI), USA. The pathogenic fungi selected were genus Tricophyton (T. rubrum, T. mentagrophytes, T. tonsurans), genus Microsporum (M. gypseum), genus Epidermophyton (E. floccosum), genus Candida (C. albicans), genus Aspergillus (A. fumigatus), and genus Cryptococcus (C. neoformans). […] In the drug-susceptibility tests, Mg ions and Ca ions necessary for conidia (spores) of the fungus to germinate growth were included in the nutrient medium.
(§2) The antifungal activity of the compounds of the present invention was evaluated by performing drug-sensitivity tests against various pathogenic fungi. The testing method was a broth microdilution method in conformance with the guidelines of the Clinical Laboratory Standards Institute (CLSI), USA.

[2] = JECFA evaluation of food additives; cited from earlier work
tinea corporis = assay: Topical treatment of tinea corporis, case reports; assay type: in vivo, humans; settings: for healing of tinea corporis: Example 10: 0.01% test solutions
From the text: (§3) The compounds of the present invention were investigated with respect to the treatment of dermatomycosis affecting humans. […] The cases of tinea used in the investigation involved selection of various types of tinea such as vesicular-type tinea, interdigital-type tinea, hyperkeratotic tinea, tinea corporis, tinea unguium, etc.
(§4) The dermatophytes that cause dermatophytosis, a typical form of dermatomycosis, are mainly Trichophyton rubrum and Trichophyton mentagrophytes. […] This confirmation of dermatophytes involved planting a sample of skin or nail of an area affected with tinea in a Candida nutrient medium (Nissui Pharmaceutical Co., Ltd.), isolating the dermatophytes that grow, and then confirming the dermatophytes through gene analysis or observation of morphology. A more detailed description of the fungus identification is provided in the examples.
A 1% test solution of ethylenediaminetetraacetic acid trisodium salt prepared in the same manner as Example 6 was applied by spraying once a day onto an area, approximately 5 cm wide and 3 cm long, of a chest affected by tinea corporis, which was denoted by flaring redness.
To 119 mg of ethylenediaminetetraacetic acid tetrasodium salt tetrahydrate was added 20% ethanol to prepare 1 L of 0.01% test solution. This test solution was applied by spraying, three times a day, to tinea corporis denoted by red flaring ridges that had occurred on the thigh.

M. furfur = assay: Malassezia drug sensitivity test (Sugita et al., mLNA medium); assay type: cell-based
Procedure: as §1
(§5) The antifungal activity of the compounds of the present invention against Malassezia spp. was evaluated in drug sensitivity tests against human-related genus Malassezia species, performed in compliance with the methodology of Sugita et al. (2005). The test drug and mLNA nutrient medium were added to the wells of a 24-well microtiter plate with a total quantity of 2 mL. A 50 μL microbe suspension with a concentration of approximately 1×10^4 cell/mL was added to the medium, which was cultured aerobically for 7 days at 32° C. In comparison to the control (no test drug), the density required to completely prevent growth was set as the minimum inhibitory concentration (MIC).

E. floccosum IFM 53345 = assay: CLSI broth microdilution drug-sensitivity test; assay type: cell-based, Epidermophyton floccosum
Procedure: as §1, §2

T. rubrum IFM 59814 = assay: CLSI broth microdilution drug-sensitivity test; assay type: cell-based, Trichophyton rubrum
Procedure: as §1, §2

C. albicans IFM 5740 = assay: CLSI broth microdilution drug-sensitivity test; assay type: cell-based
Procedure: as §1, §2

A. fumigatus IFM4942 = assay: CLSI broth microdilution drug-sensitivity test; assay type: cell-based
Procedure: as §1, §2

C. neoformans IFM5807 = assay: CLSI broth microdilution drug-sensitivity test; assay type: cell-based
Procedure: as §1, §2

M. gypseum IFM 59816 = assay: CLSI broth microdilution drug-sensitivity test; assay type: cell-based
Procedure: as §1, §2

tinea glabrosa = assay: Topical treatment of tinea glabrosa, case reports; assay type: in vivo, humans
Procedure: Dermatomycosis includes dermatophytosis, cutaneous candidiasis, and malasseziosis. As time progresses with these diseases, a variety of fungi will parasitize the site.
To 2.4 g of calcium benzoate trihydrate was added water to prepare 200 g of a 1% test solution. This solution was atomized twice a day for tinea glabrosa denoted by redness on the abdominal region.
This red papule was treated twice a day with a 2% solution of ethylenediaminetetraacetic acid trisodium salt prepared in the same manner as in Example 5.

hyperkeratotic tinea = assay: Topical treatment of hyperkeratotic tinea, case reports; assay type: in vivo, humans
From the text: as §3, §4

M. slooffiae = assay: organism not typed; settings: 168 h
Procedure: as §1, §5

M. sympodialis = assay: organism not typed; settings: 168 h
Procedure: as §1, §5

M. japonica = assay: organism not typed; settings: 168 h
Procedure: as §1, §5

M. yamatoensis = assay: organism not typed; settings: 168 h
Procedure: as §1, §5

M. dermatitis = assay: organism not typed; settings: 168 h
Procedure: as §1, §5

M. obtusa = assay: organism not typed; settings: 168 h
Procedure: as §1, §5

M. restricta = assay: organism not typed; settings: 168 h
Procedure: as §1, §5

M. globosa = assay: microbe, parasite or virus in culture; settings: Malassezia globosa, 168 h
Procedure: as §1
as §5, with “In comparison to the control (no test drug), the density required to completely prevent growth was set as the minimum inhibitory concentration (MIC).” left out

tinea unguium = assay: Treatment of tinea unguium, case reports; assay type: in vivo, humans
Malassezia infection = settings: Example 14: 1% test solution applied twice a day, lower-left abdomen
interdigital tinea = settings: Example 7: 2% test solution sprayed once daily between toes; Trichophyton rubrum
[3] = T. mentagrophytes IFM 59813, broth microdilution
[4] = Trichophyton mentagrophytes, IFM59813
[5] = Epidermophyton floccosum, IFM53345
[6] = Cryptococcus neoformans, IFM5807
[7] = Example 11: 2% test solution, big toe immersed in fingerstall, Trichophyton rubrum

From the text for small red papules: Dermatophyte was isolated from the papules in this case, and was confirmed through gene analysis to be Trichophyton mentagrophytes.

C/C=C/C=C/C(=O)[O-].[Na+] [sodium sorbate]
MIC ([1]; Trichophyton mentagrophytes, IFM59813, T. mentagrophytes IFM 59813, broth microdilution, read-out: MIC): 780 µg/mL

O=C([O-])c1ccccc1.[K+] [potassium benzoate]
MIC [1, 3]: 780 µg/mL

O=C([O-])CN(CCN(CC(=O)[O-])CC(=O)O)CC(=O)[O-].[K+].[K+].[K+] [ethylenediaminetetraacetic acid tripotassium salt]
MIC [1, 4]: 78 µg/mL

O=C([O-])c1ccccc1.O=C([O-])c1ccccc1.[Mg+2] [magnesium benzoate]
MIC [1, 3]: 780 µg/mL

O=C([O-])CN(CCN(CC(=O)O)CC(=O)O)CC(=O)[O-].[Na+].[Na+] [ethylenediaminetetraacetic acid disodium salt]
permissible daily intake [2]: ≤ 2.5 mg per 1 kg of body weight | healing of tinea corporis (tinea corporis): heal tinea corporis | MIC [1, 4]: 78 µg/mL

O=C([O-])CN(CCN(CC(=O)[O-])CC(=O)O)CC(=O)[O-].[Na+].[Na+].[Na+] [ethylenediaminetetraacetic acid trisodium salt]
MIC (M. furfur; Malassezia furfur, 168 h): 63 µg/mL | MIC (E. floccosum IFM 53345; [5]): 78 µg/mL | MIC (T. rubrum IFM 59814; Trichophyton rubrum, IFM59814): 39 µg/mL | time until red flaring disappeared and healthy skin returned (tinea corporis; Example 8: 1% test solution sprayed once a day, chest, Trichophyton mentagrophytes): approximately 2 weeks | time until skin symptoms disappeared or cicatrized (tinea corporis healed) (tinea corporis; Example 9: 1% test solution sprayed once a day, left thigh, considered M. canis): approximately one | healing of tinea corporis (tinea corporis): heal tinea corporis | MIC (C. albicans IFM 5740; Candida albicans, IFM5740): 0.2 µg/mL | MIC (A. fumigatus IFM4942; Aspergillus fumigatus, IFM4942): 9.8 µg/mL | MIC (C. neoformans IFM5807; [6]): 9.8 µg/mL | MIC (M. gypseum IFM 59816; Nannizzia gypsea, IFM59816): 78 µg/mL | time until red papules cured completely (tinea glabrosa; Example 23: 2% solution once or twice a day, thigh, abdomen, breast or back, Aspergillus tubingensis, Basidiomycete and other fungi): 1-2 weeks | time until complete cure of red papule (tinea glabrosa; Example 23: 2% solution twice a day, back of head, Aspergillus japonicus): two | time until hyperkeratotic-type tinea eliminated and clean skin recovered (hyperkeratotic tinea; Example 5: 2% test solution (glycerin, 15% ethanol), sprayed twice daily, sole of foot, T. mentagrophytes and Candida isolated): approximately 2 months | time until tinea eliminated and healthy skin returned (hyperkeratotic tinea; Example 6: 1% test solution, foot immersed 1 hour a day): about one and a half | time until infected area entirely replaced by healthy skin (hyperkeratotic tinea; Example 17: 2% test solution sprayed twice a day, base of toes to arch, Trichophyton rubrum): approximately 6 months | time until complete recovery of healthy skin (hyperkeratotic tinea; Example 21: 5% test solution sprayed twice a day, left and right heels, Trichophyton rubrum): 3 months | MIC (M. slooffiae): 63 µg/mL | MIC (M. sympodialis): 63 µg/mL | MIC (M. japonica): 63 µg/mL | MIC (M. yamatoensis): 63 µg/mL | MIC (M. dermatitis): 31 µg/mL | MIC (M. obtusa): 31 µg/mL | MIC (M. restricta): 31 µg/mL | MIC (M. globosa): 63 µg/mL | time until healthy skin and nail recovered (tinea unguium; Example 12: 2% test solution, little finger soaked in fingerstall at bedtime, T. mentagrophytes and Candida): 2 months | outcome of tinea unguium treatment (tinea unguium; Example 16: 2% test solution sprayed twice a day, big-toe toenail refractory to oral Itrizole): curing the tinea | time until tinea unguium cured (tinea unguium; Example 20: 3% test solution sprayed twice a day, little-toe toenail, Trichophyton rubrum): approximately 8 months | time until healthy nail recovered (tinea unguium; Example 22: 10% test solution in water applied once a day, right thumb nail, Trichophyton rubrum): about one | time until healthy nail restored (tinea unguium; Example 23: 20% test solution (glycerin, water) applied twice a day, right thumbnail, Trichophyton rubrum): about 1 year | time until papules disappeared, completely healed (small red papules; Example 18: 2% test solution sprayed twice a day, scalp at back of head): 2 weeks | time until papules disappeared, completely healed (small red papules; Example 19: 2% test solution sprayed twice a day, back of right thigh, Trichophyton mentagrophytes): 10 days | MIC [1, 4]: 78 µg/mL | time until light-brown area disappeared (Malassezia infection): approximately 3 weeks

O=C([O-])c1ccccc1.[Na+] [sodium benzoate]
MIC (M. furfur; M. furfur, 7 days at 32° C., complete prevention of growth): 310 µg/mL | MIC (E. floccosum IFM 53345; E. floccosum IFM 53345, broth microdilution): 200 µg/mL | MIC (T. rubrum IFM 59814; T. rubrum IFM 59814, broth microdilution): 390 µg/mL | healing of tinea corporis (tinea corporis): heal tinea corporis | MIC (C. albicans IFM 5740; C. albicans IFM 5740, broth microdilution): 6300 µg/mL | MIC (A. fumigatus IFM4942; A. fumigatus IFM4942, broth microdilution): 3100 µg/mL | MIC (C. neoformans IFM5807; C. neoformans IFM5807, broth microdilution): 1600 µg/mL | MIC (M. gypseum IFM 59816; M. gypseum IFM 59816, broth microdilution): 1600 µg/mL | time until healthy nail restored (tinea unguium; Example 13: 1% test solution in 20% ethanol, thumb nail soaked in fingerstall one day, 10 times): about 3 months | MIC [1, 3]: 200 µg/mL

CCC(C)n1ncn(-c2ccc(N3CCN(c4ccc(OCC5COC(Cn6cncn6)(c6ccc(Cl)cc6Cl)O5)cc4)CC3)cc2)c1=O (stereo not drawn) [Itrizole, reference compound]
outcome of oral therapy of tinea unguium (tinea unguium; Example 16: oral therapy, left-foot big-toe toenail): ineffective

O=C([O-])CN(CCN(CC(=O)[O-])CC(=O)[O-])CC(=O)[O-].[Mg+2].[Na+].[Na+] [ethylenediaminetetraacetic acid magnesium disodium salt]
MIC [1, 4]: 78 µg/mL

O=C([O-])c1ccccc1.O=C([O-])c1ccccc1.[Ca+2] [calcium benzoate]
curative effect against tinea of the skin (tinea glabrosa; 1% aqueous solution (Example 15)): showed a curative effect | time until skin symptoms disappeared (tinea eliminated) (tinea glabrosa; Example 15: 1% test solution in water atomized twice a day, abdominal region): about two

C/C=C/C=C/C(=O)[O-].[K+] [potassium sorbate]
MIC (M. furfur; Malassezia furfur, 168 h): 310 µg/mL | MIC (E. floccosum IFM 53345; [5]): 200 µg/mL | MIC (T. rubrum IFM 59814; Trichophyton rubrum, IFM59814): 780 µg/mL | healing of tinea corporis (tinea corporis): heal tinea corporis | MIC (C. albicans IFM 5740; Candida albicans, IFM5740): 3100 µg/mL | MIC (A. fumigatus IFM4942; Aspergillus fumigatus, IFM4942): 780 µg/mL | MIC (C. neoformans IFM5807; [6]): 200 µg/mL | MIC (M. gypseum IFM 59816; Nannizzia gypsea, IFM59816): 780 µg/mL | time until healthy nail regained (tinea unguium; Example 13: 1% test solution (1% glycerin, 15% ethanol), big-toe toenail immersed 1 hour a day): about 9 months | MIC [1, 4]: 390 µg/mL

O=C([O-])CN(CCN(CC(=O)[O-])CC(=O)[O-])CC(=O)[O-].[Na+].[Na+].[Na+].[Na+] [ethylenediaminetetraacetic acid tetrasodium salt]
time until redness disappeared (tinea cured) (tinea corporis; Example 10: 0.01% test solution in 20% ethanol sprayed three times a day, thigh): approximately 2 weeks | time until skin symptoms disappeared and healthy skin returned (interdigital tinea): approximately 2 months | time until healthy nail grew from the nail base (tinea unguium; [7]): approximately 2 months | time until recovery complete with a healthy nail (tinea unguium; [7]): 6 months | MIC [1, 4]: 39 µg/mL
